The test system of the test is primary mouse oligodendrocyte precursor cells. Kind of test: In vitro differentiation of primary mouse OPCs (MBP/O4 immunostaining, MBP western blot). The test is classed as cell-based. The note with it: for Relative MBP protein expression (ratio MBP to β-actin), western blot: treatment day 0, 2, 4, 6 days, compared to vehicle; for MBP protein expression (IHC), dose dependence / MBP/O4 ratio, dose dependence: Roflumilast 5, 10 μM, Gebr32a 0.5, 1, 5 μM, BPN14770 0.1-10 μM, day 6. The procedure: FIG. 3: Inhibition of PDE4 by roflumilast induces differentiation of primary mouse oligodendrocyte precursor cells. Primary mouse oligodendrocyte precursor cells (OPCs) were isolated from p0 C57bl6 pups using the shake off method at day 0. Primary OPCs (150.000 cells/condition) were cultured and stimulated with vehicle (0.1% DMSO) or the PDE4 inhibitor Roflumilast (5 μM, or 10 μM) in 0.1% DMSO. Treatment was repeated on day 2 and day 4, applying a 40% medium change. Cells were fixated at day 6 and stained for O4, a late OPC marker and MBP, an oligodendrocyte marker.
For western blot, primary OPCs (500.000 cells/condition) were cultured and stimulated with vehicle (0.1% DMSO) or the PDE4 inhibitor Roflumilast (5 μM) in 0.1% DMSO. Treatment was repeated on day 2 and day 4, applying a 40% medium change. […] IHC Data were analyzed using a non-parametric Kruskal-Wallis test with Dunn's multiple comparisons test was performed; p<0.05=*; n=4/group. Western blot data were analyzed using a non-parametric Mann-Withney test; p<0.05; n=4/group.
FIG. 4: Inhibition of PDE4D by Gebr32a induces differentiation of primary mouse oligodendrocyte precursor cells. Primary mouse oligodendrocyte precursor cells (OPCs) were isolated from p0 C57bl6 pups using the shake off method at day 0. Primary OPCs (150.000 cells/condition) were cultured and stimulated with vehicle (0.1% DMSO) or the PDE4D inhibitor Gebr32a (0.5 μM, 1 μM or 5 μM) in 0.1% DMSO. Treatment was repeated on day 2 and day 4, applying a 40% medium change. Cells were fixated at day 6 and stained for O4, a late OPC marker and MBP, an oligodendrocyte marker.
For western blot, primary OPCs (500.000 cells/condition) were cultured and stimulated with vehicle (0.1% DMSO) or the PDE4D inhibitor Gebr32a (5 μM) in 0.1% DMSO. Treatment was repeated on day 2 and day 4, applying a 40% medium change. […] IHC Data were analyzed using a non-parametric Kruskal-Wallis test with Dunn's multiple comparisons test was performed; p<0.05=*; n=4/group. Western blot data were analyzed using a non-parametric Mann-Withney test; p<0.05; n=4/group.
FIG. 5: Inhibition of PDE4D by BPN14770 induces differentiation of primary mouse oligodendrocyte precursor cells. Primary mouse oligodendrocyte precursor cells (OPCs) were isolated from p0 C57bl6 pups using the shake off method at day 0. Primary OPCs (150.000 cells/condition) were cultured and stimulated with vehicle (PBS) or the PDE4D inhibitor BPN14770 (0.1 μM, 0.3 μM, 1 μM, 3 μM and 10 μM) in PBS. Treatment was repeated on day 2 and day 4, applying a 40% medium change. Cells were fixated at day 6 and stained for O4, a late OPC marker and MBP, an oligodendrocyte marker.
Mixed glial cultures were prepared from postnatal day 2 mouse cerebral cortices of C57BLl/6JOIaHsd animals and used to generate OPC-enriched glial cultures by separating the OPCs from the astrocyte monolayer by orbital shaking followed by purification by differential adhesion to plastic. Purified OPCs were seeded on poly-L-lysine (5 μg/ml; Sigma-Aldrich, Bornem, Belgium) coated plates or glass cover slides for staining. Isolated OPCs were plated in 24-well plates (150,000 cells/well Greiner Bio-One, Frickenhausen, Germany) for immunocytochemistry or in 6-well plates (500,000 cells/well Greiner Bio-One, Frickenhausen, Germany) for western blot analyses. OPCs were induced to differentiate for 6 days with Roflumilast (5 μM and 10 μM), Gebr32 (0.5, 1 and 5 μM) or vehicle (DMSO) in SATO-medium supplemented with 2% horse serum (Sigma-Aldrich). Treatment was repeated on day 2 and 4, applying a 40% medium change. All plates were at 37° C. and 8.5% C02.
Western blot was used to assess the total MBP production by OPC treated with roflumilast or Gebr32a compare to the vehicle group. Equal amount of protein sample was separated by 10% sodium dodecyl sulfate polyacrylamide gel electrophorese and blotted onto a PVDF membrane (GE Healthcare, Buckinghamshore, UK). […]

From patent US20210145838A1, “SELECTIVE PDE4D INHIBITORS AGAINST DEMYELINATING DISEASES” (Universiteit Hasselt, priority 2018, published 2021) come the findings set out here.

With `OC(CN1CCOCC1)Cn1ccc(-c2ccc(OC(F)F)c(OC3CCCC3)c2)n1` (stereo not shown) [Gebr32a], the “MBP protein expression (IHC), dose dependence” value is “dose-dependent increase” and the “MBP/O4 ratio, dose dependence” value is “dose-dependent increase”. The “Relative MBP protein expression (ratio MBP to β-actin), western blot” value (5 μM) is “three-fold increase”.
For the molecule `O=C(Nc1c(Cl)cncc1Cl)c1ccc(OC(F)F)c(OCC2CC2)c1` [roflumilast], the “MBP protein expression (IHC), dose dependence” value is “increased dose-dependently” and the “MBP/O4 ratio, dose dependence” value is recorded as “increased dose-dependently”. Besides, the “Relative MBP protein expression, IHC” value (5 μM, fixated at day 6, compared to vehicle) was “three-fold increased”. In addition, the “Relative MBP protein expression (ratio MBP to β-actin), western blot” value (5 μM) is “three-fold increased”.
